Test results: patent US20220402932A1, “Compounds Constituting C20-Modified Salinomycin Derivatives, a Method for Obtaining the Same, a Composition Containing the Same, a Use of Said Compounds and a Method for Obtaining an Intermediate Product” (FILECLO SP. Z O.O., priority 2020, published 2022)

Key:
[1] = test system: advanced head, neck, breast and ovarian cancer; details: small group of patients with advanced head; cited from earlier work
[2] = test system: cancer cell lines B16-F0, Hs294T, LoVo, LoVo/DX, MCF-7, MV-4-11; test: In vitro cytotoxicity tests (SRB / MTT) on cancer cell lines; type: cell-based, human and murine; details: versus salinomycin; from Table 3 IC50 data; 72 hours incubation
Experimental: (§1) The solvent for further dilutions was a culture medium.
(§2) The experiments were repeated at least 3 times.
(§3) After 4 hours of incubation at 37° C., 80 μL of lysis buffer was added to each well.

[3] = test system: MV-4-11 (human biphenotypic leukaemia); test: In vitro cytotoxicity test, MTT assay, MV-4-11; type: cell-based; details: 72 hours incubation
Experimental: as §1, §2, §3

Compound | effect on cancer progression [1] | side effects [1] | anti-proliferative effect compared to the parent compound [2] | effect against biphenotypic leukaemia cells [3]
CC[C@@H](C(=O)[C@@H](C)[C@@H](O)[C@H](C)[C@@H]1O[C@@H]([C@@H](CC)C(=O)O)CC[C@@H]1C)[C@H]1O[C@]2(C=C[C@@H](O)[C@]3(CC[C@@](C)([C@H]4CC[C@](O)(CC)[C@H](C)O4)O3)O2)[C@H](C)C[C@@H]1C [Salinomycin] | inhibition of cancer progression | no acute side effects |  | 
C#CCOC(=O)N[C@@H]1C=C[C@]2(O[C@H]([C@@H](CC)C(=O)[C@@H](C)[C@@H](O)[C@H](C)[C@@H]3O[C@@H]([C@@H](CC)C(=O)O)CC[C@@H]3C)[C@@H](C)C[C@H]2C)O[C@@]12CC[C@@](C)([C@H]1CC[C@](O)(CC)[C@H](C)O1)O2 [formula (22), C20-dehydroxy-C20-aminosalinomycin N-propargylcarbamate] |  |  | tens of times more potent | 
CC[C@@H](C(=O)[C@@H](C)[C@@H](O)[C@H](C)[C@@H]1O[C@@H]([C@@H](CC)C(=O)O)CC[C@@H]1C)[C@H]1O[C@]2(C=C[C@@H](NC(=O)c3ccccc3)[C@]3(CC[C@@](C)([C@H]4CC[C@](O)(CC)[C@H](C)O4)O3)O2)[C@H](C)C[C@@H]1C [formula (15), C20-dehydroxy-C20-aminosalinomycin N-benzamide] |  |  | several times more potent | 
CC[C@@H](C(=O)[C@@H](C)[C@@H](O)[C@H](C)[C@@H]1O[C@@H]([C@@H](CC)C(=O)O)CC[C@@H]1C)[C@H]1O[C@]2(C=C[C@@H](NC(=O)C(C)C)[C@]3(CC[C@@](C)([C@H]4CC[C@](O)(CC)[C@H](C)O4)O3)O2)[C@H](C)C[C@@H]1C [formula (10), C20-dehydroxy-C20-aminosalinomycin N-isobutyramide] |  |  | several times more potent | 
CC[C@@H](C(=O)[C@@H](C)[C@@H](O)[C@H](C)[C@@H]1O[C@@H]([C@@H](CC)C(=O)[O-])CC[C@@H]1C)[C@H]1O[C@]2(C=C[C@@H](NC(=O)NCCCCl)[C@]3(CC[C@@](C)([C@H]4CC[C@](O)(CC)[C@H](C)O4)O3)O2)[C@H](C)C[C@@H]1C.[Na+] [formula (25), 3-chloropropylurea of C20-dehydroxy-C20-aminosalinomycin] |  |  | tens of times more potent | preferred effect
